These results are taken from the supplement of paper PMC10307832.

Holding throughout (test): relative viability (nuclei count vs DMSO), 5 days (fraction); higher = more cells survive
Compound in assay [1]: CN[C@@H]1C[C@H]2O[C@@](C)([C@@H]1OC)n1c3ccccc3c3c4c(c5c6ccccc6n2c5c31)C(=O)NC4 [Staurosporine] + Nc1nc2[nH]cc(CCc3ccc(C(=O)N[C@@H](CCC(=O)O)C(=O)O)cc3)c2c(=O)[nH]1 [Pemetrexed] (partner 0.2 µM)
Put shortly: (§1)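 Cells from lung cancer lines were seeded into 1536-well plates and, one day later, dosed by pin tool. Treatments were either a single drug or a fixed dose of an anchor drug with five library-drug doses (not always all listed) in √10 steps. After 5 days, nuclei were stained in a one-step fixation (final 0.05% Triton X-100, 1% formaldehyde, 1 ug/ml Hoechst) and counted on 4× images, and relative viability is the treated-to-vehicle nuclei ratio, as the median of duplicate plates.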

Compound in assay [2]: CN[C@@H]1C[C@H]2O[C@@](C)([C@@H]1OC)n1c3ccccc3c3c4c(c5c6ccccc6n2c5c31)C(=O)NC4 [Staurosporine] + CC(=O)Nc1cccc(-n2c(=O)n(C3CC3)c(=O)c3c(Nc4ccc(I)cc4F)n(C)c(=O)c(C)c32)c1 [Trametinib] (partner 0.02 µM)
The essentials: as §1

Compound in the assay “Sulindac + Tozasertib”: CC1=C(CC(=O)O)c2cc(F)ccc2/C1=C\c1ccc([S+](C)[O-])cc1 [Sulindac] + Cc1cc(Nc2cc(N3CCN(C)CC3)nc(Sc3ccc(NC(=O)C4CC4)cc3)n2)n[nH]1 [Tozasertib] (partner 0.1 µM)
The essentials:
as §1

Compound in assay [3]: O=c1[nH]cc(F)c(=O)[nH]1 [5-Fluorouracil] + Cc1nc(Nc2ncc(C(=O)Nc3c(C)cccc3Cl)s2)cc(N2CCN(CCO)CC2)n1 [Dasatinib] (partner 0.075 µM)
Put shortly:
as §1

On to 201T, for which the relative viability in assay [1] (first compound 0.005 µM) was found to be 0.339; in assay [1] (first compound 0.05 µM), 0.261; in assay [1] (first compound 0.1581 µM), 0.253; in assay [1] (first compound 0.5 µM) it was 0.214; in assay [2] (first compound 0.005 µM), 0.769; in assay [2] (first compound 0.05 µM), 0.703. Further, the relative viability in assay [2] (first compound 0.1581 µM) was found to be 0.58; in assay [2] (first compound 0.5 µM), 0.485; with Sulindac + Tozasertib (first compound 0.08 µM), 1.08; with Sulindac + Tozasertib (first compound 0.253 µM) it was 0.94; with Sulindac + Tozasertib (first compound 0.8 µM) it was 0.957; in the assay with Sulindac + Tozasertib (first compound 2.53 µM), 0.94. Moreover, the relative viability was 0.98 with Sulindac + Tozasertib (first compound 8 µM); 0.592 in assay [3] (first compound 0.02 µM); 0.555 in assay [3] (first compound 0.2 µM); 0.348 in assay [3] (first compound 0.6325 µM); 0.284 in assay [3] (first compound 2 µM).
As for A-427, the relative viability came to 0.633 in assay [1] (first compound 0.005 µM); 0.58 in assay [1] (first compound 0.01581 µM); 0.335 in assay [1] (first compound 0.05 µM); 0.209 in assay [1] (first compound 0.1581 µM); 0.175 in assay [1] (first compound 0.5 µM); 0.521 in assay [2] (first compound 0.005 µM). Moreover, the relative viability in assay [2] (first compound 0.01581 µM) is 0.439; in assay [2] (first compound 0.05 µM) it was 0.247; in assay [2] (first compound 0.1581 µM), 0.121; in assay [2] (first compound 0.5 µM), 0.117; with Sulindac + Tozasertib (first compound 0.08 µM), 0.176; with Sulindac + Tozasertib (first compound 0.253 µM), 0.198. Further, the relative viability with Sulindac + Tozasertib (first compound 0.8 µM) was found to be 0.193; with Sulindac + Tozasertib (first compound 2.53 µM), 0.177; with Sulindac + Tozasertib (first compound 8 µM), 0.206; in assay [3] (first compound 0.02 µM), 0.562; in assay [3] (first compound 0.2 µM) it was 0.764; in assay [3] (first compound 0.6325 µM), 0.618. Besides, in assay [3] (first compound 2 µM), the relative viability is 0.353.
As to ABC-1, the relative viability with Sulindac + Tozasertib (first compound 0.08 µM) worked out at 0.12; in the assay with Sulindac + Tozasertib (first compound 0.253 µM), 0.147; in the assay with Sulindac + Tozasertib (first compound 0.8 µM), 0.157; with Sulindac + Tozasertib (first compound 2.53 µM), 0.162; in the assay with Sulindac + Tozasertib (first compound 8 µM), 0.183; in assay [3] (first compound 0.02 µM) it was 0.561. The relative viability in assay [3] (first compound 0.2 µM) was determined as 0.662; in assay [3] (first compound 0.6325 µM), 0.576; in assay [3] (first compound 2 µM), 0.558.
As for BEN, the relative viability in assay [1] (first compound 0.005 µM) worked out at 0.831; in assay [1] (first compound 0.01581 µM), 0.749; in assay [1] (first compound 0.05 µM), 0.523; in assay [1] (first compound 0.1581 µM) it was 0.261; in assay [1] (first compound 0.5 µM), 0.303; in assay [2] (first compound 0.005 µM), 1.21. For the same cell line, the relative viability in assay [2] (first compound 0.01581 µM) was 1.2; in assay [2] (first compound 0.05 µM) it was 0.827; in assay [2] (first compound 0.1581 µM), 0.729; in assay [2] (first compound 0.5 µM), 0.439; with Sulindac + Tozasertib (first compound 0.08 µM), 0.46; with Sulindac + Tozasertib (first compound 0.253 µM), 0.449. Moreover, the relative viability worked out at 0.519 with Sulindac + Tozasertib (first compound 0.8 µM); 0.462 with Sulindac + Tozasertib (first compound 2.53 µM); 0.566 with Sulindac + Tozasertib (first compound 8 µM); 0.318 in assay [3] (first compound 0.02 µM); 0.318 in assay [3] (first compound 0.2 µM); 0.284 in assay [3] (first compound 0.6325 µM). The relative viability in assay [3] (first compound 2 µM) came to 0.277.
For the cell line CAL-12T, the relative viability in assay [1] (first compound 0.005 µM) turned out to be 0.345; in assay [1] (first compound 0.01581 µM) it was 0.248; in assay [1] (first compound 0.05 µM) it was 0.229; in assay [1] (first compound 0.1581 µM), 0.191; in assay [1] (first compound 0.5 µM), 0.124; in assay [2] (first compound 0.005 µM), 0.19. The relative viability stood at 0.145 in assay [2] (first compound 0.01581 µM); 0.0965 in assay [2] (first compound 0.05 µM); 0.126 in assay [2] (first compound 0.1581 µM); 0.083 in assay [2] (first compound 0.5 µM); 0.253 with Sulindac + Tozasertib (first compound 0.08 µM); 0.282 in the assay with Sulindac + Tozasertib (first compound 0.253 µM). For the same cell line, the relative viability is 0.322 with Sulindac + Tozasertib (first compound 0.8 µM); 0.301 in the assay with Sulindac + Tozasertib (first compound 2.53 µM); 0.365 with Sulindac + Tozasertib (first compound 8 µM); 0.403 in assay [3] (first compound 0.02 µM); 0.371 in assay [3] (first compound 0.2 µM); 0.282 in assay [3] (first compound 0.6325 µM). The relative viability in assay [3] (first compound 2 µM) was found to be 0.261.
COR-L23: the relative viability came out at 0.191 in assay [1] (first compound 0.005 µM); 0.151 in assay [1] (first compound 0.01581 µM); 0.161 in assay [1] (first compound 0.05 µM); 0.135 in assay [1] (first compound 0.1581 µM); 0.0959 in assay [1] (first compound 0.5 µM); 0.325 in assay [2] (first compound 0.005 µM). Besides, the relative viability in assay [2] (first compound 0.01581 µM) is 0.148; in assay [2] (first compound 0.05 µM), 0.0689; in assay [2] (first compound 0.1581 µM), 0.0665; in assay [2] (first compound 0.5 µM), 0.0391; in the assay with Sulindac + Tozasertib (first compound 0.08 µM), 0.591; with Sulindac + Tozasertib (first compound 0.253 µM), 0.242. Moreover, the relative viability with Sulindac + Tozasertib (first compound 0.8 µM) came out at 0.179; in the assay with Sulindac + Tozasertib (first compound 2.53 µM) it was 0.186; with Sulindac + Tozasertib (first compound 8 µM), 0.238; in assay [3] (first compound 0.02 µM) it was 0.529; in assay [3] (first compound 0.2 µM) it was 0.467; in assay [3] (first compound 0.6325 µM), 0.254. Moreover, the relative viability in assay [3] (first compound 2 µM) worked out at 0.186.
COR-L 105: the relative viability stood at 0.655 in assay [1] (first compound 0.005 µM); 0.554 in assay [1] (first compound 0.01581 µM); 0.52 in assay [1] (first compound 0.05 µM); 0.428 in assay [1] (first compound 0.1581 µM); 0.293 in assay [1] (first compound 0.5 µM); 0.427 in assay [2] (first compound 0.005 µM). Further, the relative viability in assay [2] (first compound 0.01581 µM) is 0.357; in assay [2] (first compound 0.05 µM), 0.274; in assay [2] (first compound 0.1581 µM), 0.234; in assay [2] (first compound 0.5 µM), 0.237; with Sulindac + Tozasertib (first compound 0.08 µM) it was 0.291; in the assay with Sulindac + Tozasertib (first compound 0.253 µM), 0.349. Moreover, the relative viability in the assay with Sulindac + Tozasertib (first compound 0.8 µM) came to 0.348; in the assay with Sulindac + Tozasertib (first compound 2.53 µM), 0.373; in the assay with Sulindac + Tozasertib (first compound 8 µM), 0.391; in assay [3] (first compound 0.02 µM), 0.292; in assay [3] (first compound 0.2 µM) it was 0.362; in assay [3] (first compound 0.6325 µM) it was 0.29. For the same cell line, in assay [3] (first compound 2 µM), the relative viability amounted to 0.244.
With ChaGo-K-1, the relative viability in assay [1] (first compound 0.005 µM) was 0.262; in assay [1] (first compound 0.05 µM), 0.251; in assay [1] (first compound 0.1581 µM), 0.141; in assay [1] (first compound 0.5 µM), 0.163; in assay [2] (first compound 0.005 µM), 0.911; in assay [2] (first compound 0.05 µM), 0.796. Also, the relative viability in assay [2] (first compound 0.1581 µM) was found to be 0.579; in assay [2] (first compound 0.5 µM), 0.455; with Sulindac + Tozasertib (first compound 0.08 µM), 0.228; with Sulindac + Tozasertib (first compound 0.253 µM), 0.197; in the assay with Sulindac + Tozasertib (first compound 0.8 µM), 0.24; in the assay with Sulindac + Tozasertib (first compound 2.53 µM), 0.217. Moreover, the relative viability with Sulindac + Tozasertib (first compound 8 µM) turned out to be 0.241; in assay [3] (first compound 0.02 µM), 0.558; in assay [3] (first compound 0.2 µM), 0.595; in assay [3] (first compound 0.6325 µM), 0.386; in assay [3] (first compound 2 µM) it was 0.39.
